The values below come from patent US20130224239A1, “ALCOHOLIC EXTRACT OF FUNGI OF GENUS […] AND USE THEREOF” (KING SAUD UNIVERSITY, priority 2011, published 2013).

One experiment has as its system Staphylococcus aureus. The experiment can be described thus: Minimum inhibitory concentration, agar well diffusion. As to conditions: against Staphylococcus aureus. In kind it is cell-based. An excerpt:
(§1) For antimicrobial screening the well known disc diffusion and agar well diffusion methods were used, together with the determination of minimum inhibitory concentration (MIC), see Duguid et al., Microbial Infections, The English Language Book Society, Churchill Livingston, Edingburgh, London, 1978; vol. 1, page 110.
Agar well diffusion method: On the other hand, the agar well diffusion method was employed for determination of the minimum inhibitory concentration (MIC). The test organisms were separately seeded in the agar medium. The wells (10 mm in diameter) were cut from the agar and […] (different concentrations) was transferred into them. After incubation period, following suitable conditions for the test organism, the diameter of the inhibition zone around the discs was measured in millimeters. The obtained result was the mean of three experiments.
The minimum inhibitory concentration (MIC) of Cunninghamella blakesleeana, C. elegans, C. homothallica and successive extracts and isolated compounds of Cunninghamella elegans against Staphylococcus aureus was determined.
Minimum inhibitory concentration (MIC): The lowest concentration of an antimicrobial agent that will inhibit a visible growth of a microorganism after overnight incubation.
(A growth-free zone around the sample is the usual read-out of agar diffusion tests.)

Experiment [1] relates to Salmonella typhimuium (RCMB 0104). Nature of the experiment: Antimicrobial screening, disc diffusion. Type of experiment: cell-based. As to conditions: Salmonella typhimuim; compounds isolated from Cunninghamella elegans. On the procedure: The alcoholic extracts obtained were used for testing their antimicrobial activity. Each extract (0.5 g) was dissolved in 10 ml water. Same concentrations for the successive extracts (using diethyl ether, chloroform, ethyl acetate and n-butanol) were also prepared.
The representatives of Gram negative bacteria, namely Salmonella typhimuium (RCMB 0104), Escherichia coli (RCMB 0103), Pseudomonas aeruginosa (RCMB 0102) and Gram positive bacteria, namely Bacillus subtilis (RCMB 0107), Staphylococcus aureus (RCMB 0106), Streptococcus pyogenes (RCMB 0109), unicellular fungi, namely Candida albicans (RCMB 5002) and filamentous fungi, namely Aspergillus fumigatus (RCMB 2003) and Penicllium expansum (RCMB 1006) were used as test organisms (RCMB: The Regional Center for Mycology and Biotechnology, Al-azhar University Nasser City, Cairo, Egypt).
as §1
Disc diffusion method: The agar disc diffusion method is employed for the determination of antimicrobial activities of the extracts of the investigated fungal species. Sterilized paper discs (Whatman No. 1) ([…]) were separately soaked in the extracts and transferred onto the surface of growth media seeded with the test organism. After incubation period, following suitable conditions for the test organism, the diameter of the inhibition zone around the discs was measured in millimeters.
Each fungal species was grown on malt extract media at 28±2° C. for 14 days. The metabolites of the fungal species were screened for antimicrobial activity.

≈ marks a conversion by molar mass, not a printed value.

For the molecule `Nc1ncnc2c1ncn2C1OC(CO)C(O)C1O` (stereo not drawn) [Compound 4, 2-(6-amino-9H-purine-9-yl)-5-(hydroxymethyl)oxolane-3,4-diol], the Minimum inhibitory concentration with Staphylococcus aureus came out at 020 µg/mL (≈ 74.8 µM). For the same molecule, in the experiment with Staphylococcus aureus (read-out: Minimum inhibitory concentration), the MIC was 20 µg/mL (≈ 74.8 µM). Moreover, the “Diameter of inhibition zone” value in experiment [1] was found to be 00.0 mm.
